Common to all, as to type: biochemical
One assay addresses T1, PI3Kdelta (Homo sapiens, UniProt O00329).
T1 construct: His (N); host or cells: SF9 insect cells (baculovirus)
In words: Human PI3K delta enzyme assay (HTRF, as for PI3K alpha). The conditions noted are these: for inhibition at 1.11 µM: read-out: PI3Kdelta % inh. An excerpt:
(§1) The catalytic subunits of PI3Ks are cloned into either pDEST8(p110 alpha) or pDEST10(p110beta, p110delta, and p110gamma) as N-terminal His tagged fusion proteins using the Gateway system (Invitrogen, catalog#11804-010 for pDEST8 and 11806-015 for pDEST10). The sequences are verified before recombinant protein expression using the Baculovirus Expression System with Gateway® Technology. The accession numbers for the subunits are as follows:
(§2) The regulatory subunits of PI3Ks are cloned into pDEST8 as un-tagged protein using the Gateway system (Catalog#11804-010). The sequences are verified before recombinant protein expression using the Baculovirus Expression System with Gateway® Technology. The accession numbers for the subunits are as follows:
(§3) For expression of the p110 complexes, the p85 (MOI of 4) is co-infected with p110 alpha, beta, and delta respectively (1MOI) in SF9 cells and harvested at 60 hours post co-infection. P110 gamma was infected at 1 MOI and harvested at 60 hours post infection.
(§4) For purification, PI3Ks are purified by Ni-NTA Agarose (Qiagen #30250) followed by Mono Q 10/100 GL (Ge Healthcare #17-5167-01). VPS34 is purified by Glutathione Sepharose 4 Fast Flow (GE Healthcare #17-5132-03) followed by HiTrap Q (GE Healthcare #17-1153-01).
(§5) 0.5 uL compounds in DMSO are added to wells of a 384 well microtitre plate (Corning 3575). At room temperature: 10 ul PI3K reaction buffer (50 mM Hepes, 5 mM DTT, 150 mM NaCl, 10 mM beta-glycerophosphate, 10 mM MgCl2, 0.25 mM sodium cholate and 0.001% CHAPS, pH 7.00) containing ATP (25 uM, Promega) is added followed immediately by 10 ul PI3K reaction buffer containing di-C8 PI(4,5)P2 (3.5 uM, CellSignals) and PI3Kalpha (0.4875 nM, Millennium Protein Sciences Group) and the mixture is incubated with shaking at room temperature for 30 minutes. Then 5 ul PI3K stop mix (50 mM Hepes, 5 mM DTT, 150 mM NaCl, 0.01% Tween-20, 15 mM EDTA and 25 nM biotin-PI(3,4,5)P3 (Echelon) is added to quench the reaction followed immediately by addition of 5 ul HTRF detection mix (50 mM Hepes, 5 mM DTT, 150 mM NaCl, 0.01% Tween-20, 40 mM KF, 10 nM GST:GRP-1 PH domain (Millennium Protein Sciences Group), 15 nM Streptavidin-XL (CisBio) and 0.375 nM anti-GST Eu++ antibody (CisBio) at pH 7.00). The plates are then incubated for 1 hour at room temperature with shaking and then read on a BMG PheraStar Plus reader.
(§6) 2) Human PI3K beta, delta and gamma isoforms are tested using the procedure described for PI3K alpha above but with the following changes: PI3K beta (5.25 nM), PI3K delta (0.75 nM) and PI3K gamma (5 nM). All isoforms supplied by Millennium Protein Science Group.

The next assay addresses T2, VPS34 (Homo sapiens, UniProt Q8NEB9).
T2 construct: GST (N); host or cells: SF9 insect cells (baculovirus)
The assay is described as follows: Human VPS34 enzyme assay (Adapta Universal Kinase Assay). The conditions noted are these: 1 h, read-out: VPS34 % ihn. Here is the method:
VPS34 (accession number GB:BC033004) is cloned into pDEST20-Thombin as N-terminal GST tagged fusion proteins using the Gateway system (Invitrogen, catalog#11804-013). The sequences are verified before recombinant protein expression using the Baculovirus Expression System with Gateway® Technology.
For expression VPS34 was infected at 1MOI in SF9 cells and harvested 72 hours post infection.
For purification, VPS34 is purified by Glutathione Sepharose 4 Fast Flow (GE Healthcare #17-5132-03) followed by HiTrap Q (GE Healthcare #17-1153-01).
3) VPS34 is assayed using Adapta™ Universal Kinase Assay Kit (Invitrogen).
4) Human VPS34 enzyme assay method
100 mL compounds in DMSO are added to wells of a 384 well microtitre plate (Greiner 780076). At room temperature: 5 ul VPS34 reaction buffer (Invitrogen Assay Buffer Q (diluted 1 in 5 with nanopure water) plus 2 mM DTT and 2 mM MnCl2) containing ATP (20 uM, Promega) and 200 uM PI-PS substrate (Invitrogen PV5122) is added followed immediately by 5 ul VPS34 reaction buffer (as above) containing VPS34 (5 nM, Millennium Protein Sciences Group) and the mixture is incubated with shaking at room temperature for 1 hour. Then 5 ul VPS34 stop-detect mix (as per Invitrogen Adapta Assay kit (PV5009) instructions (contains kinase quench buffer, TR-FRET buffer, Adapta Eu anti-ADP antibody and Alexa Fluor 647 ADP tracer)) is added to quench the reaction. The plates are then incubated for 30 minutes at room temperature with shaking and then read on a BMG PheraStar Plus reader.

Another assay has as its target T3, PI3Kgamma (Homo sapiens, UniProt P48736).
T3 construct: His (N); host or cells: SF9 insect cells (baculovirus)
The assay is described as follows: Human PI3K gamma enzyme assay (HTRF, as for PI3K alpha). The conditions noted are these: for inhibition at 1.11 µM: read-out: PI3Kgamma % inh.
From the text: as §1, §2, §3, §4, §5, §6

The target of the next assay is T4, PI3Kalpha (Homo sapiens, UniProt P42336).
T4 construct: His (N); host or cells: SF9 insect cells (baculovirus)
T4 sequence (P42336 whole entry): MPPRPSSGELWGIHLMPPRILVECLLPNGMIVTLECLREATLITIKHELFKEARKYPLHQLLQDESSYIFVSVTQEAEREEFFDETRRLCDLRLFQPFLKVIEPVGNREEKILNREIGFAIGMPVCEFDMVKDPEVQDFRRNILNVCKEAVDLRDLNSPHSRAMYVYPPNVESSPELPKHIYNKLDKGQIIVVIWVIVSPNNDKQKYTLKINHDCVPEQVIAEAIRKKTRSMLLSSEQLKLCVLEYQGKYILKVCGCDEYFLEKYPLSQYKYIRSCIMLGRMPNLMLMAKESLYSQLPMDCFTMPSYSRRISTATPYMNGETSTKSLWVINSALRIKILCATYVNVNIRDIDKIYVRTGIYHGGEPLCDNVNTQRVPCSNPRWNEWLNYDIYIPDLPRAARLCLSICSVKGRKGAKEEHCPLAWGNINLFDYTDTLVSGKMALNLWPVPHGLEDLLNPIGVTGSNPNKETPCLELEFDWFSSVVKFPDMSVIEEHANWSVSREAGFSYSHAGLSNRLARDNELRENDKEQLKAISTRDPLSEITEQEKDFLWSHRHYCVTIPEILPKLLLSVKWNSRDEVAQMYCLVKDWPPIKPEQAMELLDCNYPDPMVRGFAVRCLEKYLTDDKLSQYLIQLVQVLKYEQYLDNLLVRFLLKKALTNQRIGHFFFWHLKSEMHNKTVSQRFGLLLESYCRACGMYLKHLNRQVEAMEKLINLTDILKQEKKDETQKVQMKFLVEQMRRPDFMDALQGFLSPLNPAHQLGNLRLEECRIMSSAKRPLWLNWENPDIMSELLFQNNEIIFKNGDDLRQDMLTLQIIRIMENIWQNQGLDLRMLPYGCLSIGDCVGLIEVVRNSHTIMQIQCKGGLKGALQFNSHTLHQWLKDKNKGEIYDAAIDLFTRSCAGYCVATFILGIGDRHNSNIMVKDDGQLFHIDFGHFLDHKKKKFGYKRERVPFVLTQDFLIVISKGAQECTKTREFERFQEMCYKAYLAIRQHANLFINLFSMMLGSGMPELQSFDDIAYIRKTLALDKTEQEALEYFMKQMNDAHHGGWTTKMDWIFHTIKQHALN
T4 sequence (P27986 whole entry partner): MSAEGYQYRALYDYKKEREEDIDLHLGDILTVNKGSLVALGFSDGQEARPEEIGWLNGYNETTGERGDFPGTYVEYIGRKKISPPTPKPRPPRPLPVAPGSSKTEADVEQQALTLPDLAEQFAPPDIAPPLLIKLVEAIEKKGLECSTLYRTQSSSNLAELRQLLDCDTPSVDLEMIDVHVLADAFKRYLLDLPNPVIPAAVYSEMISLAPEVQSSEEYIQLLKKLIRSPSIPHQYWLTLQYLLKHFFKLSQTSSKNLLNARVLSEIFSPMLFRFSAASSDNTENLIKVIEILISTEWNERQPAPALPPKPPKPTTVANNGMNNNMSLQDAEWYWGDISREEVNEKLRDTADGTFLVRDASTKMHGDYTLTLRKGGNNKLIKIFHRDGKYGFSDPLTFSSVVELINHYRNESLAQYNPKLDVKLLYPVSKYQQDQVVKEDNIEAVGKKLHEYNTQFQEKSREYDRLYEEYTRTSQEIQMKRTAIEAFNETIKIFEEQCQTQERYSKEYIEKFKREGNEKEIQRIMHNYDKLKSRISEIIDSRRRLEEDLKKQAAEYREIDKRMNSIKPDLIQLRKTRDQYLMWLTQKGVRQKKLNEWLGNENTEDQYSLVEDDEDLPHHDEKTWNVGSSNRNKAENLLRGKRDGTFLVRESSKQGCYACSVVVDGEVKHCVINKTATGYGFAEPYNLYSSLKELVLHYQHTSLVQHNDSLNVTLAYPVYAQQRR
In words: Human PI3Kα enzyme assay (HTRF). To be noted: for inhibition at 1.11 µM: read-out: PI3Kalpha % inh; for PI3Kalpha % inh: at 1.11 μM.
From the text: as §1, §2, §3, §4
1) Human PI3Kα enzyme assay method
as §5

For a further assay, the target named is T5, PI3Kbeta (Homo sapiens, UniProt P42338).
T5 construct: His (N); host or cells: SF9 insect cells (baculovirus)
T5 sequence (P42338 whole entry): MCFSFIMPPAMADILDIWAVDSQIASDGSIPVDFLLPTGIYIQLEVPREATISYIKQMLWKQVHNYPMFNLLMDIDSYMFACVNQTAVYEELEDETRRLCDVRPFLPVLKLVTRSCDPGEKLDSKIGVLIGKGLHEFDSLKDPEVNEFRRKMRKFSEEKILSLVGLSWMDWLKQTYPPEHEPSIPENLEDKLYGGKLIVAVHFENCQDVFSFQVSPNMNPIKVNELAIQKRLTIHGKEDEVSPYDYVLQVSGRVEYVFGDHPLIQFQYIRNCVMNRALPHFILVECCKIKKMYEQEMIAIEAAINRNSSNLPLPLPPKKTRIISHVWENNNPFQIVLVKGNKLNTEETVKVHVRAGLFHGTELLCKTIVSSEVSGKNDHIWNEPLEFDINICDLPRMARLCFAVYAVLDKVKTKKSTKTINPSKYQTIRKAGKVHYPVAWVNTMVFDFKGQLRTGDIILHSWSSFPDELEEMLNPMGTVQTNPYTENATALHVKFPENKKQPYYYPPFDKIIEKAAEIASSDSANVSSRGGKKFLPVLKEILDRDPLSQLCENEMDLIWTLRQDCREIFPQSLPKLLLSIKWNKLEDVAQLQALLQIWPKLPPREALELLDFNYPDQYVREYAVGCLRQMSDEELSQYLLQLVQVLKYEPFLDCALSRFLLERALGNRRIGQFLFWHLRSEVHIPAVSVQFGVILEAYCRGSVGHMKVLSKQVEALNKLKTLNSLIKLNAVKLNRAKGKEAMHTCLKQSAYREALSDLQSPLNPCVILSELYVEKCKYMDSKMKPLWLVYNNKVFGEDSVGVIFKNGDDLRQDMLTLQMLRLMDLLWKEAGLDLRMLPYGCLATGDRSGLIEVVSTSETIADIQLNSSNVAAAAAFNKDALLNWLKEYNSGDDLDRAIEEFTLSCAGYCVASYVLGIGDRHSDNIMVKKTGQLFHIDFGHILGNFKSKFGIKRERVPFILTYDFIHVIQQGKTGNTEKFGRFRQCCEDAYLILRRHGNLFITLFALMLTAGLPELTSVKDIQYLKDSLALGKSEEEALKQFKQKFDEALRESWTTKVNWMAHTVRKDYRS
T5 sequence (P27986 whole entry partner): as the sequence (P27986 whole entry partner) above
In words: Human PI3K beta enzyme assay (HTRF, as for PI3K alpha). The conditions noted are these: for inhibition at 1.11 µM: read-out: PI3Kbeta % inh; for pIC50: read-out: IC50 (inhibit PI3Kbeta); for inhibition at 1.11 µM / PI3Kbeta % inh: at 1.11 μM.
From the text: as §1, §2, §3, §4, §5, §6

pIC50: −log10 of the molar value.

T3 sequence (P48736 whole entry): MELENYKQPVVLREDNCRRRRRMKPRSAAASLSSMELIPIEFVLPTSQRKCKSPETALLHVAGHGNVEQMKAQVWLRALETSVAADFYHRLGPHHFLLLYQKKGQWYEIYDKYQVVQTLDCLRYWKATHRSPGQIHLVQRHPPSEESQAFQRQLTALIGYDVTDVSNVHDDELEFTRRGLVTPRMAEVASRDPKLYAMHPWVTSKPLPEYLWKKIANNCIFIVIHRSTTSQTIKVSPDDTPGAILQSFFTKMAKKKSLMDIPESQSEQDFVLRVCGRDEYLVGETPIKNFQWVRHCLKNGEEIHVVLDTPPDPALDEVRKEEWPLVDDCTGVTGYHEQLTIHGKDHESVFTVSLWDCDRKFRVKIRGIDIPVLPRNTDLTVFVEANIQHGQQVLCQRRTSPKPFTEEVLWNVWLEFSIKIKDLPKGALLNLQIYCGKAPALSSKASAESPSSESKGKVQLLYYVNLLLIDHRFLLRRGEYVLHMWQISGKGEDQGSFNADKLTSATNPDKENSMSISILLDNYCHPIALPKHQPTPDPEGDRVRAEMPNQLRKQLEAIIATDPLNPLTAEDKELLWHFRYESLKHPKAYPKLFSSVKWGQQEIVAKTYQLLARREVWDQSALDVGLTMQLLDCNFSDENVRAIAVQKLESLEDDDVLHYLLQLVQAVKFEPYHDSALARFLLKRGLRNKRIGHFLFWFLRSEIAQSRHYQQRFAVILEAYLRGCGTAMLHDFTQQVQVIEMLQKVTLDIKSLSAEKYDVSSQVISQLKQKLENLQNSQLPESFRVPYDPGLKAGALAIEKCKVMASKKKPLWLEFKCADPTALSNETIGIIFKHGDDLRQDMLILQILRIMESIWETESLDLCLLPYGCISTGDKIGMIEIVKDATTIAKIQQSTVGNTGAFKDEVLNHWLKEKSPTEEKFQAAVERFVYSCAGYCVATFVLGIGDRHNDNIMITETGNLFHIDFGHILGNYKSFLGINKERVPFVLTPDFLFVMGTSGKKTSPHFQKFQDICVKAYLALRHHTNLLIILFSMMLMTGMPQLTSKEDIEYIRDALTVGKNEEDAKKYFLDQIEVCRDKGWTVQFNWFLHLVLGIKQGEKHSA
T1 sequence (O00329 whole entry): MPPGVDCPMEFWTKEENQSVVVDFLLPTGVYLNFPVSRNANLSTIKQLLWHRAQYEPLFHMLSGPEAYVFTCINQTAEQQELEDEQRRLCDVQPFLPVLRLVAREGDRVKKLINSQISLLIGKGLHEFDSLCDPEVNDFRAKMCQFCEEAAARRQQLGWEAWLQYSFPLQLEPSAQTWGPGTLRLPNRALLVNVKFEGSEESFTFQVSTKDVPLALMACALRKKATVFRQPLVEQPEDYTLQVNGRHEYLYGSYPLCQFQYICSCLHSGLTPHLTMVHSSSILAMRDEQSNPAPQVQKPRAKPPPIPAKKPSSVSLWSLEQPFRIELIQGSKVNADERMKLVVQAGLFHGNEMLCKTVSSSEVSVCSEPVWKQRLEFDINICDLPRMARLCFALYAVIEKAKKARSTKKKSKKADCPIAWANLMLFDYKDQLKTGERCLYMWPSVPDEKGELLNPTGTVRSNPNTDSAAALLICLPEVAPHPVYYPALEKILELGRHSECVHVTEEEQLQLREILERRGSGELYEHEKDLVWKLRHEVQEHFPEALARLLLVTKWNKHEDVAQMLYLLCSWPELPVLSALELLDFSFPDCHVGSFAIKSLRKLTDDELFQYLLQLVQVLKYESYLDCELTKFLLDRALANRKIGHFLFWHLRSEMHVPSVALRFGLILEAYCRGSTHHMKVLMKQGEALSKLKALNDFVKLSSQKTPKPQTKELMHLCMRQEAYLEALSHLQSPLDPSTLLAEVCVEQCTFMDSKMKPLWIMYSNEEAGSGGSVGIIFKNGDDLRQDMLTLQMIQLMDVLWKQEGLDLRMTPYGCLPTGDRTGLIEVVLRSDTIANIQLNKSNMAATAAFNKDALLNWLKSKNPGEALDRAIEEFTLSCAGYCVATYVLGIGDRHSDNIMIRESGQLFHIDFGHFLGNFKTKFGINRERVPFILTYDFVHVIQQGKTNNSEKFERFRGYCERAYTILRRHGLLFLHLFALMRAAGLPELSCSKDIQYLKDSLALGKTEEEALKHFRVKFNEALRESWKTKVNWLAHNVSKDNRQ
T1 sequence (P27986 whole entry partner): as the sequence (P27986 whole entry partner) above

With `O=C1NCCC(c2ccc(Cl)cc2)c2cc(-c3ccncc3)sc21` (racemic) [Compound 8, 4-(4-chlorophenyl)-2-pyridin-4-yl-4,5,6,7-tetrahydro-8H-thieno[2,3-c]azepin-8-one], the inhibition at 1.11 µM stood at 59.2% on PI3Kdelta; 2.55% at VPS34; 21.9% at PI3Kgamma; 2.05% on PI3Kalpha; 102% at PI3Kbeta. The pIC50 at PI3Kbeta was over 7.00.
As for `O=C1CCC(c2ccc(Cl)cc2)c2cc(-c3ccncc3)sc21` (racemic) [Compound 13, 4-(4-chlorophenyl)-2-pyridin-4-yl-5,6-dihydro-1-benzothiophen-7(4H)-one], the inhibition at 1.11 µM was 55.7% on PI3Kdelta; 6.6% on VPS34; 10.8% on PI3Kgamma; 3.1% on PI3Kalpha; 102% on PI3Kbeta. The pIC50 on PI3Kbeta is over 7.00.
With `O=S1(=O)NCC(O)(c2ccc(Cl)cc2)c2cc(-c3ccncc3)sc21` (racemic) [Compound 26, 4-(4-chlorophenyl)-6-pyridin-4-yl-3,4-dihydro-2H-thieno[3,2-e][1,2]thiazin-4-ol 1,1-dioxide], the inhibition at 1.11 µM was 37.9% on PI3Kdelta; 1.2% on VPS34; 11.7% at PI3Kgamma; 6.6% at PI3Kalpha; 105% at PI3Kbeta. The pIC50 on PI3Kbeta was over 7.00.
For the compound `N#Cc1c(N2CCOCC2)sc2c1C(c1ccc(Cl)cc1)OC2=O` (stereo not shown) [Compound 3, 4-(4-chlorophenyl)-2-morpholin-4-yl-6-oxo-4,6-dihydrothieno[2,3-c]furan-3-carbonitrile], the inhibition at 1.11 µM at VPS34 was -2.5%; on PI3Kalpha it was 10.8%; at PI3Kbeta, 65.7%. Besides, the pIC50 at PI3Kbeta was 6.00 to 7.00.
On to `CNC(=O)[C@@H]1NC(=O)c2sc(N3CCOCC3)cc2[C@H]1c1ccc(Cl)cc1` [Compound 123], for which the inhibition at 1.11 µM on PI3Kdelta came out at 49.6%; on PI3Kgamma, 10.4%. This compound also yielded a PI3Kalpha % inh at PI3Kalpha of 32.28%. The compound further had a PI3Kbeta % inh at PI3Kbeta of 101.46%.
For `O=C1NCC(c2ccc(Cl)cc2)c2nc(N3CCOCC3)sc21` (stereo not shown) [Compound 124], the inhibition at 1.11 µM came out at 59.2% on PI3Kdelta, 9.41% at PI3Kgamma, 12.2% at PI3Kalpha and 93.5% at PI3Kbeta.
For `O=C1N[C@@H](CO)[C@H](c2ccc(Cl)cc2)c2cc(N3CCOCC3)sc21` [Compound 133] the same measures were 102%, 30.7%, 35% and 110%.
For `CCCOC(=O)[C@@H]1NC(=O)c2sc(N3CCOCC3)cc2[C@H]1c1ccc(Cl)cc1` [Compound 136], the PI3Kdelta % inh at PI3Kdelta (at 1.11 μM) is 35.35%. The same compound yielded a PI3Kgamma % inh on PI3Kgamma (at 1.11 μM) of 4.11%. Besides, on PI3Kalpha, the PI3Kalpha % inh came to 17.00%. In addition, at PI3Kbeta, the PI3Kbeta % inh was 87.47%.
Turning to `O=C1NCCC(c2ccc(Cl)cc2)c2cc(N3CCOCC3)sc21` (stereo not shown) [Compound 148], the inhibition at 1.11 µM on PI3Kdelta was determined as 98.2%; on PI3Kgamma, 13.2%. At PI3Kalpha, this compound displayed a PI3Kalpha % inh of 24.59%. Also, the PI3Kbeta % inh on PI3Kbeta was 118.63%.
For the compound `N#Cc1c(N2CCOCC2)sc2c1C(c1ccc(Cl)cc1)CCNC2=O` (stereo not shown) [Compound 150], the inhibition at 1.11 µM on PI3Kdelta came to 99.9%; at PI3Kgamma, 21.5%; at PI3Kalpha it was 26.8%; at PI3Kbeta, 108%.
For `N#Cc1c(N2CCOCC2)sc2c1C(c1c(F)cc(Cl)cc1F)CNC2=O` (stereo not shown) [Compound 151] the same measures were 90%, 41%, 43.1% and 103%.
On to `O=C1N[C@@H](C(=O)NCCO)[C@H](c2ccc(Cl)cc2)c2cc(N3CCOCC3)sc21` [Compound 153], for which the inhibition at 1.11 µM at PI3Kdelta turned out to be 39.8%; at PI3Kgamma, 9.08%. The same compound showed a PI3Kalpha % inh at PI3Kalpha of 20.40%. At PI3Kbeta, this compound yielded a PI3Kbeta % inh of 87.14%.
Regarding `CC(C)NC(=O)[C@@H]1NC(=O)c2sc(N3CCOCC3)cc2[C@H]1c1ccc(Cl)cc1` [Compound 162], the inhibition at 1.11 µM at PI3Kdelta is 41.8%; on PI3Kgamma it was 3.59%; at PI3Kalpha, 7.94%; on PI3Kbeta it was 70.6%.
On to `N#Cc1c(N2CCOCC2)sc2c1C(c1ccc3ccccc3c1)NC2=O` (stereo not shown) [Compound 169], for which the inhibition at 1.11 µM is 98.2% on PI3Kdelta, 71.3% on PI3Kgamma, 50.6% at PI3Kalpha and 99.7% at PI3Kbeta.
For `O=C1N[C@@H](C(=O)NCCCO)[C@H](c2ccc(Cl)cc2)c2cc(N3CCOCC3)sc21` [Compound 170], the inhibition at 1.11 µM on PI3Kdelta worked out at 51.6%; on PI3Kgamma, 12.5%. Also, the PI3Kalpha % inh at PI3Kalpha turned out to be 22.53%. Also, the PI3Kbeta % inh at PI3Kbeta is reported as 83.73%.
As for `O=C1NCCC(c2ccc3ccccc3c2)c2cc(N3CCOCC3)sc21` (stereo not shown) [Compound 175], the inhibition at 1.11 µM turned out to be 112% on PI3Kdelta, 43.8% on PI3Kgamma, 66.9% at PI3Kalpha and 112% at PI3Kbeta.
Consider `O=C1NCC(c2ccc(Cl)c(Cl)c2)c2cc(N3CCOCC3)sc21` (stereo not shown) [Compound 176, 4-(3,4-dichlorophenyl)-2-morpholino-5,6-dihydrothieno[2,3-c]pyridin-7(4H)-one], for which the inhibition at 1.11 µM on PI3Kdelta was 108%; at PI3Kgamma it was 60.1%. Also, the PI3Kalpha % inh at PI3Kalpha is given as 28.06%. The PI3Kbeta % inh on PI3Kbeta was found to be 105.20%.
For the compound `Cc1cc(C2CNC(=O)c3sc(N4CCOCC4)c(C#N)c32)ccc1Cl` (stereo not shown) [Compound 190], the inhibition at 1.11 µM at PI3Kdelta was 101%; at PI3Kgamma it was 35.8%; at PI3Kalpha, 57.5%; at PI3Kbeta, 123%.
Turning to `CCNC(=O)[C@@H]1NC(=O)c2sc(N3CCOCC3)cc2[C@H]1c1ccc(Cl)cc1` [Compound 197], the results for the inhibition at 1.11 µM on PI3Kdelta, at PI3Kgamma and at PI3Kbeta were 47.4%, 9.08% and 84.1%, respectively. Also, on PI3Kalpha, the PI3Kalpha % inh turned out to be 19.34%.
